{"source": "ChEMBL document CHEMBL1153131", "about": "“Synthesis and antitumor activity of novel 2',3'-dideoxy-2',3'-diethanethionucleosides bearing 1,2,3-triazole residues” (Bioorg Med Chem Lett, 2010)", "format_in_all_cases": "functional, cell-based", "key": {"A549": {"tested_on": "A549", "assay": "Cytotoxicity against human A549 cells after 72 hrs by MTT assay", "settings": "A549, 72 h; call rule not given here"}, "HeLa": {"tested_on": "HeLa", "assay": "Cytotoxicity against human HeLa cells after 72 hrs by MTT assay"}, "HepG2": {"tested_on": "HepG2", "assay": "Cytotoxicity against human HepG2 cells after 72 hrs by MTT assay", "settings": "for pEC50: Homo sapiens, HepG2, 72 h, read-out: EC50"}, "[1]": {"assay": "Cytotoxicity against human LAC cells after 72 hrs by MTT assay", "settings": "for pEC50: Homo sapiens, LAC, 72 h, read-out: EC50; for EC50: lac"}}, "note": "pEC50: −log10 of the molar value."}
{"compound": "CCS[C@@H]1[C@H](SCC)[C@@H](CO)O[C@H]1n1cc(CO)nn1", "values": [{"measurement": "pEC50", "setting": "A549", "value": "< 4.00"}, {"measurement": "pEC50", "setting": "HeLa", "value": "< 4.00"}, {"measurement": "pEC50", "setting": "HepG2", "value": "< 4.00"}, {"measurement": "pEC50", "setting": "[1]", "value": "< 4.00"}]}
{"compound": "CCS[C@@H]1[C@H](SCC)[C@@H](CO)O[C@H]1n1cc(-c2ccc(F)cc2)nn1", "values": [{"measurement": "pEC50", "setting": "A549", "value": 4.69}, {"measurement": "pEC50", "setting": "HeLa", "value": 5.16}, {"measurement": "pEC50", "setting": "HepG2", "value": 5.02}, {"measurement": "pEC50", "setting": "[1]", "value": 4.79}]}
{"compound": "CCS[C@@H]1[C@H](SCC)[C@@H](CO)O[C@H]1n1cc(C)c(=O)[nH]c1=O", "values": [{"measurement": "pEC50", "setting": "A549", "value": 4.06}, {"measurement": "pEC50", "setting": "HeLa", "value": 4.53}, {"measurement": "EC50", "setting": "HepG2; hepg2", "value": "Not Active"}, {"measurement": "EC50", "setting": "[1]", "value": "Not Active"}]}
{"compound": "CCS[C@@H]1[C@H](SCC)[C@@H](CO)O[C@H]1n1cc(Cn2cc(C)c(=O)[nH]c2=O)nn1", "values": [{"measurement": "pEC50", "setting": "A549", "value": "< 4.00"}, {"measurement": "pEC50", "setting": "HeLa", "value": "< 4.00"}, {"measurement": "pEC50", "setting": "HepG2", "value": "< 4.00"}, {"measurement": "pEC50", "setting": "[1]", "value": "< 4.00"}]}
{"compound": "CCS[C@@H]1[C@H](SCC)[C@@H](CO)O[C@H]1n1cc(-c2ccccc2)nn1", "values": [{"measurement": "pEC50", "setting": "A549", "value": 4.36}, {"measurement": "pEC50", "setting": "HeLa", "value": 4.95}, {"measurement": "pEC50", "setting": "HepG2", "value": 5.02}, {"measurement": "pEC50", "setting": "[1]", "value": 4.68}]}
{"compound": "CCS[C@@H]1[C@H](SCC)[C@@H](CO)O[C@H]1n1cc(-c2ccc(OC)cc2)nn1", "values": [{"measurement": "pEC50", "setting": "A549", "value": 4.63}, {"measurement": "pEC50", "setting": "HeLa", "value": 5.24}, {"measurement": "pEC50", "setting": "HepG2", "value": 4.96}, {"measurement": "pEC50", "setting": "[1]", "value": 4.84}]}
{"compound": "CCS[C@@H]1[C@H](SCC)[C@@H](CO)O[C@H]1n1ccc(N)nc1=O", "values": [{"measurement": "pEC50", "setting": "A549", "value": 4.06}, {"measurement": "pEC50", "setting": "HeLa", "value": 3.75}, {"measurement": "pEC50", "setting": "HepG2", "value": 3.94}, {"measurement": "EC50", "setting": "[1]", "value": "Not Active"}]}
{"compound": "O=c1[nH]c(=O)n([C@H]2C[C@H](O)[C@@H](CO)O2)cc1F", "note": "[FLOXURIDINE]", "values": [{"measurement": "pEC50", "setting": "A549", "value": 5.01}, {"measurement": "pEC50", "setting": "HeLa", "value": 4.99}, {"measurement": "pEC50", "setting": "HepG2", "value": 4.72}, {"measurement": "pEC50", "setting": "[1]", "value": 4.49}]}
{"compound": "CCS[C@@H]1[C@H](SCC)[C@@H](CO)O[C@H]1n1ccc(=O)[nH]c1=O", "values": [{"measurement": "pEC50", "setting": "A549", "value": 4.06}, {"measurement": "pEC50", "setting": "HeLa", "value": 4.12}, {"measurement": "pEC50", "setting": "HepG2", "value": 4.13}, {"measurement": "EC50", "setting": "[1]", "value": "Not Active"}]}
{"compound": "CCS[C@@H]1[C@H](SCC)[C@@H](CO)O[C@H]1n1cc(C(=O)NC)nn1", "values": [{"measurement": "pEC50", "setting": "A549", "value": "< 4.00"}, {"measurement": "pEC50", "setting": "HeLa", "value": "< 4.00"}, {"measurement": "pEC50", "setting": "HepG2", "value": "< 4.00"}, {"measurement": "pEC50", "setting": "[1]", "value": "< 4.00"}]}
{"compound": "CCS[C@@H]1[C@H](SCC)[C@@H](CO)O[C@H]1n1cc(Cn2ccc(N)nc2=O)nn1", "values": [{"measurement": "pEC50", "setting": "A549", "value": "< 4.00"}, {"measurement": "pEC50", "setting": "HeLa", "value": "< 4.00"}, {"measurement": "pEC50", "setting": "HepG2", "value": "< 4.00"}, {"measurement": "pEC50", "setting": "[1]", "value": "< 4.00"}]}
